Measurements taken from patent US11304964B2, “Bolaamphiphilic compounds, compositions and uses thereof” (priority 2012, dated 2022).

Experiment: Pharmacokinetic studies, second set (LC-MS, brain)
Format: in vivo
Conditions: pyrido pretreated mice
Experimental: Another group of mice were injected with free tenofovir. The total dose of tenofovir that was injected to the mice that received encapsulated tenofovir was […], out of which 7.5 mg/kg was encapsulated tenofovir. The total dose of tenofovir that was injected to the mice that received free tenofovir was 75 mg/kg. All animals were pretreated with 0.5 mg/kg pyrido. Results are mean of 5 mice±SD.
In the second set of the PK studies, all the mice were pretreated with pyrido 15 min prior to the injection of 7.5 mg/kg tenofovir encapsulated in optimal vesicles or with 75 mg/kg free tenofovir with no vesicles.

Compound: C[C@H](Cn1cnc2c(N)ncnc21)OCP(=O)(O)O [tenofovir, ({[(2R)-1-(6-amino-9H-purin-9-yl)propan-2-yl]oxy}methyl)phosphonic acid]
- concentration of tenofovir in the brain (7.5 mg/kg tenofovir encapsulated in optimized V-Smart vesicles, all time points up to 2 hours, vs estimated therapeutic threshold): > 100 ng/mL
- concentrations of tenofovir in the brain (free drug 75 mg/kg, no vesicles, detection limit 40 ng/ml): below the measurable level
- concentration at 60 min (mouse, brain, intravenous, 7.5 mg/kg encapsulated in optimized V-Smart vesicles, 60 min after the injection, read-out: concentration of tenofovir in the brain): ~1000 ng/mL
- concentration at 15 min (mouse, brain, intravenous, 7.5 mg/kg encapsulated in optimized V-Smart vesicles, after 15 min, read-out: concentration of tenofovir in the brain): > 6000 ng/g
